Experimental data reported in patent US12187723B2 (BRISTOL-MYERS SQUIBB COMPANY, priority 2019, dated 2025).

molecular target: T1, human TLR9 (Homo sapiens, UniProt Q9NR96); assay: TLR9 inhibition reporter assay (HEK-Blue SEAP); format: cell-based; details: HEK-Blue cells overexpressing human TLR9, ODN2006 5 nM, 22 hour incubation
T1 construct: host or cells: HEK-Blue cells
T1 sequence (Q9NR96 26-1032): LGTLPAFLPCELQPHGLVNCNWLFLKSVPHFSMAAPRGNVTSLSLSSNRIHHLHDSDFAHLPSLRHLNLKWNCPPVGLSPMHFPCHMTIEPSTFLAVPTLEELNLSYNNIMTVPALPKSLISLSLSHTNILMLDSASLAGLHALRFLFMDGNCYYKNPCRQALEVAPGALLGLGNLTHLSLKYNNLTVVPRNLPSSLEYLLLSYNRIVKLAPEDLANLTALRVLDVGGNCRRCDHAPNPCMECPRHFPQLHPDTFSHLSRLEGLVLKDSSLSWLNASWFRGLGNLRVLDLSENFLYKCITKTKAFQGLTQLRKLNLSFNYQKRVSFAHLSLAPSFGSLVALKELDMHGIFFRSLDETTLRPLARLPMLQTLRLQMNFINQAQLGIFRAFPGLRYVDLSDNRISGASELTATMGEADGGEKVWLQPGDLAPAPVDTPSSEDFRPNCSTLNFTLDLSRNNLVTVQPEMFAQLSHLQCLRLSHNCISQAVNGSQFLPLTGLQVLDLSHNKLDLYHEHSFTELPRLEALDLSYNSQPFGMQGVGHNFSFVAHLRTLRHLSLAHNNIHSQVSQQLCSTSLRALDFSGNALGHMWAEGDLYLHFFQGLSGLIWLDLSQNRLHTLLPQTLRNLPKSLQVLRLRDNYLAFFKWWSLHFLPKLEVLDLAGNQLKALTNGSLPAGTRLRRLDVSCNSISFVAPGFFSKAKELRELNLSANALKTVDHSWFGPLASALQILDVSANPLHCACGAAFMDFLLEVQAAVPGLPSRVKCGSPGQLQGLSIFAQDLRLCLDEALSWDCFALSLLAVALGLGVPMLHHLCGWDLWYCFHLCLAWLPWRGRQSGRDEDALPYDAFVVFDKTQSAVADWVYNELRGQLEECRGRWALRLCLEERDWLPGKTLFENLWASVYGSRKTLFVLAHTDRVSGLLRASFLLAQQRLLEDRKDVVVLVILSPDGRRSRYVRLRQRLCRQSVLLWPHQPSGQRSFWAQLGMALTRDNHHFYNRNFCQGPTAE
Outline: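 Compound treatment: 30 min, RT, 0.05 nM–50 μM final. Agonist: TLR7 gardiquimod 7.5 μM; TLR8 R848 15.9 μM; TLR9 ODN2006 5 nM. Incubation 22 h, 37 °C, 5% CO2. Readout SEAP, HEK-Blue Detection.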

IC50 [µM] | SMILES
15.1 | COc1cc(-c2cc3[nH]c(=O)n(C4CCC(N5CCCC5)CC4)c3cc2C(C)C)cn2ncnc12 (stereo not drawn) [Example 231, 6-isopropyl-5-(8-methoxy-[1,2,4]triazolo[1,5-a]pyridin-6-yl)-1-(4-(pyrrolidin-1-yl)cyclohexyl)-1,3-dihydro-2H-benzo[d]imidazol-2-one]
7.78 | COc1cc(-c2cc3[nH]c(=O)n(C4CCC(N5CCCC5)CC4)c3cc2C(C)C)cn2ncnc12 (stereo not drawn) [Example 232, 6-isopropyl-5-(8-methoxy-[1,2,4]triazolo[1,5-a]pyridin-6-yl)-1-(4-(pyrrolidin-1-yl)cyclohexyl)-1,3-dihydro-2H-benzo[d]imidazol-2-one]
11.3 | COc1cc(-c2cc3[nH]c(=O)n(C4CCC(N5CC(OC)C5)CC4)c3cc2C(C)C)cn2ncnc12 (stereo not drawn) [Example 237, 6-isopropyl-5-(8-methoxy-[1,2,4]triazolo[1,5-a]pyridin-6-yl)-1-(4-(3-methoxyazetidin-1-yl)cyclohexyl)-1,3-dihydro-2H-benzo[d]imidazol-2-one]
8.09 | COc1cc(-c2cc3[nH]c(=O)n(C4CCC(N5CC(OC)C5)CC4)c3cc2C(C)C)cn2ncnc12 (stereo not drawn) [Example 238, 6-isopropyl-5-(8-methoxy-[1,2,4]triazolo[1,5-a]pyridin-6-yl)-1-(4-(3-methoxyazetidin-1-yl)cyclohexyl)-1,3-dihydro-2H-benzo[d]imidazol-2-one]
> 50 | COc1cc(-c2cc3[nH]c(=O)n(C4CCC(N5CCNC(=O)C5)CC4)c3cc2C(C)C)cn2ncnc12 (stereo not drawn) [Example 243, 6-isopropyl-5-(8-methoxy-[1,2,4]triazolo[1,5-a]pyridin-6-yl)-1-(4-(3-oxopiperazin-1-yl)cyclohexyl)-1,3-dihydro-2H-benzo[d]imidazol-2-one]

Second part, the compound before the results:

SMILES | IC50 [µM]
CCc1cc2c(cc1-c1cc(OC)c3ncnn3c1)[nH]c(=O)n2[C@@H]1CCCN(CCOC)C1 [Example 227, (R)-6-ethyl-5-(8-methoxy-[1,2,4]triazolo[1,5-a]pyridin-6-yl)-1-(1-(2-methoxyethyl)piperidin-3-yl)-1,3-dihydro-2H-benzo[d]imidazol-2-one] | 15.2
CCc1cc2c(cc1-c1cc(OC)c3ncnn3c1)[nH]c(=O)n2[C@@H]1CCCN(C(=O)CN(C)C)C1 [Example 228, (R)-1-(1-(dimethylglycyl)piperidin-3-yl)-6-ethyl-5-(8-methoxy-[1,2,4]triazolo[1,5-a]pyridin-6-yl)-1,3-dihydro-2H-benzo[d]imidazol-2-one] | 14.1
COc1cc(-c2cc3[nH]c(=O)n(C4CCC(N5CCC6(CC5)COC6)CC4)c3cc2C(C)C)cn2ncnc12 (stereo not drawn) [Example 239, 1-(4-(2-oxa-7-azaspiro[3.5]nonan-7-yl)cyclohexyl)-6-isopropyl-5-(8-methoxy-[1,2,4]triazolo[1,5-a]pyridin-6-yl)-1,3-dihydro-2H-benzo[d]imidazol-2-one] | 13
COc1cc(-c2cc3[nH]c(=O)n(C4CCC(N5CCC6(CC5)COC6)CC4)c3cc2C(C)C)cn2ncnc12 (stereo not drawn) [Example 240, 1-(4-(2-oxa-7-azaspiro[3.5]nonan-7-yl)cyclohexyl)-6-isopropyl-5-(8-methoxy-[1,2,4]triazolo[1,5-a]pyridin-6-yl)-1,3-dihydro-2H-benzo[d]imidazol-2-one] | 4.43
